Assay results published in US20100139154A1, “PROCESS FOR FERMENTIVE PREPARATION OF ALCOHOLS AND RECOVERY OF PRODUCT” (E.I. DU PONT DE NEMOURS AND COMPANY, priority 2008, published 2010).
“And” between values parts separate entries of the source, which are not always exact repeats. Equal values may be shown once.

Experiments:
[1] = system: Lactobacillus fermentum (ATCC 14931); test: Glucose Uptake Index (GUI) of Lactobacillus fermentum culture with 5% v/v ionic liquid; format: cell-based; details: MRS medium, 16 hours, 30° C., paired control GUI 99.8, 26.5 or 94.6
[2] = Extraction of ethanol from an aqueous solution by ionic liquid, HPLC; format: physicochemical; details: concentration in aqueous solution after overnight equilibration with 5 vol % ionic liquid; control 684 mM
Experimental: (§1) Ethanol and isobutanol concentration in the solution was measured using HPLC as described above following thorough mixing and overnight equilibration of the contents of the vial.

[3] = Extraction of isobutanol from an aqueous solution by ionic liquid, HPLC; format: physicochemical; details: concentration in aqueous solution after overnight equilibration with 5 vol % ionic liquid; control 416 mM
Experimental: as §1

[4] = system: Lactobacillus zeae (ATCC 15820); test: Glucose Uptake Index (GUI) of Lactobacillus zeae culture with 5% v/v ionic liquid
Experimental: This media was made per bottle instructions using sterilized water, and was then again filter sterilized before use. The test tubes were incubated at 30° C. at 175 rpm in an Inova Incubator (Karlsbad, Sweden). After 24 hours, the test tubes were removed and stored at 4° C.
A portion (50 μL) of each stock culture prepared as above was inoculated into separate 15 mL sterile polypropylene culture tubes containing fresh MRS medium (3 mL). These tubes were incubated for four hours at 30° C. at 175 rpm. After four hours, one of these culture tubes was inoculated with 150 μL (5% v/v) of each of the ionic liquids as listed in Table 1 below. […] Each tube that was inoculated with an ionic liquid was also paired with a tube that received no ionic liquid and was used as a control.
All culture tubes were then incubated again under the same conditions for another 16 hours. After 16 hours, the culture tubes were stored at −80° C. Analytical samples were taken from each culture tube by thawing the samples and spinning them at 28,000 rpm and 20° C. for ten minutes in a Sorvall Instruments RC3C (Newtown Conn.) centrifuge. One milliliter of supernatant was removed from each tube and was subjected to high performance liquid chromatography (HPLC) analysis using an Agilent (Palo Alto Calif.) HPLC 1100 with a BioRad Aminex 87-H using 0.008 N sulfuric acid with both diode array and refractive index detection, and an Agilent HPLC 1100 with a Shodex OH-pak column using 0.01 N sulfuric acid. Data analysis was performed using the Agilent Chemstation software and Microsoft Excel.
The glucose uptake index was calculated by taking the total glucose consumed in a fermentation sample, whether or not the sample contained an ionic liquid, and dividing it by the total initial glucose present in the broth at the start of fermentation.

Compound | GUI of Sample (Glucose Utilization Index in the presence of 5% (v/v) of the ionic liquid phase) [1] | Ethanol [2] | Isobutanol [3] | GUI of Sample (Glucose Utilization Index in the presence of 5% (v/v) of the ionic liquid phase) [4]
1-butyl-3-methylimidazolium 1,1,2,3,3,3-hexafluoropropanesulfonate [[BMIM] [HFPS]] | 8.0 and 11.5 | – | – | –
1-butyl-3-methylimidazolium 1,1,2-trifluoro-2-(perfluoroethoxy)ethanesulfonate [[BMIM] [TPES]] | 7.21 | – | – | –
1-butyl-3-methylimidazolium 1,1,2-trifluoro-2-(trifluoromethoxy)ethanesulfonate [[BMIM] [TTES]] | 16.2 | – | – | –
1-butyl-3-methylimidazolium 2-(1,2,2,2-tetrafluoroethoxy)-1,1,2,2-tetrafluoroethanesulfonate [[BMIM] [FS]] | 24.0 | – | – | –
1-butyl-3-methylimidazolium bis(trifluoromethylsulfonyl)imide [[BMIM] [Tf2N]] | 26.8 | – | – | –
1-butyl-3-methylpyrrolidinium bis(trifluoromethylsulfonyl)imide [[BMP] [Tf2N]] | 0.96 | 676 mM | 391 mM | 49.8
1-ethyl-3-methylimidazolium bis(pentafluoroethylsulfonyl)imide [[EMIM] [BEI]] | 25.5 | – | – | 36.0
1-ethyl-3-methylimidazolium bis(trifluoromethylsulfonyl)imide [[EMIM] [Tf2N]] | 54.5 | 670 mM | 389 mM | 51.2
1-hexyl-3-methylimidazolium bis(trifluoromethylsulfonyl)imide [[HMIM] [Tf2N]] | 19.5 | 678 mM | 388 mM | 66.2
3-methyl-1-propylpyridinium bis(trifluoromethylsulfonyl)imide [[PMPy] [Tf2N]] | 26.1 | – | – | 63.5
CCCCn1cc[n+](C)c1.F[B-](F)(F)F [[BMIM] [BF4], 1-butyl-3-methylimidazolium tetrafluoroborate] | 9.74 | – | – | –
CCCCn1cc[n+](C)c1.F[P-](F)(F)(F)(F)F [[BMIM] [PF6], 1-butyl-3-methylimidazolium hexafluorophosphate] | 88.3 | – | – | –
CCCCCCn1cc[n+](C)c1.FC(F)(F)C(F)(F)[P-](F)(F)(F)(C(F)(F)C(F)(F)F)C(F)(F)C(F)(F)F [[HMIM] [FAP], 1-hexyl-3-methylimidazolium tris(pentafluoroethyl)trifluorophosphate] | 84.7 | 680 mM | 404 mM | –
tetradecyl(tri-n-hexyl)phosphonium 1,1,2-trifluoro-2-(perfluoroethoxy)ethanesulfonate [[6,6,6,14-P] [TPES]] | 92.8 | – | – | 62.8
